Experiment [1] relates to SNL-induced mechanical hyperalgesia. Nature of the experiment: SNL-induced mechanical hyperalgesia model (paw pressure test, PWT). It counts as in vivo, rat. As to conditions: dosed orally at 100 mg/kg, vehicle 0.5% methyl cellulose, one hour before testing. As to the method:
In the Chung model, the spinal nerve ligation (SNL) model of neuropathic pain is used to produce mechanical hyperalgesia, thermal hyperalgesia, and tactile allodynia in rats. Surgery is performed under isoflurane/O2 inhalation anesthesia. Following induction of anesthesia a 3 cm incision is made and the left paraspinal muscles are separated from the spinous process at the L4-S2 levels. The L6 transverse process is carefully removed with a pair of small rongeurs to identify visually the L4-L6 spinal nerves. The left L5 (or L5 and L6) spinal nerve(s) is (are) isolated and tightly ligated with silk thread. […] The animals can also be assessed for response to noxious thermal stimuli or for tactile allodynia, as described below. […] Sensitivity to noxious mechanical stimuli was measured in animals using the paw pressure test to assess mechanical hyperalgesia. In rats, hind paw withdrawal thresholds (“PWT”), measured in grams, in response to a noxious mechanical stimulus were determined using an analgesymeter (Model 7200, commercially available from Ugo Basile of Italy), as described in Stein (Biochemistry & Behavior 31: 451-455 (1988)). […] PWT was determined once for each rat at each time point. PWT can be measured only in the injured paw, or in both the injured and non-injured paw. […]

For a further experiment, the target named is human Nav1.7 (Homo sapiens (Human), UniProt Q15858). Nature of the experiment: FLIPR sodium dye assay for sodium channel blocking activity (recombinant Nav1.7/HEK293 cells). It counts as cell-based.
Setting [2] is: recombinant human Nav1.7 in HEK293.

Like-named read-outs stand apart in the source and are kept apart here.

Sequence of human Nav1.7 (Q15858 other isoform, or with tags, fused parts or gaps): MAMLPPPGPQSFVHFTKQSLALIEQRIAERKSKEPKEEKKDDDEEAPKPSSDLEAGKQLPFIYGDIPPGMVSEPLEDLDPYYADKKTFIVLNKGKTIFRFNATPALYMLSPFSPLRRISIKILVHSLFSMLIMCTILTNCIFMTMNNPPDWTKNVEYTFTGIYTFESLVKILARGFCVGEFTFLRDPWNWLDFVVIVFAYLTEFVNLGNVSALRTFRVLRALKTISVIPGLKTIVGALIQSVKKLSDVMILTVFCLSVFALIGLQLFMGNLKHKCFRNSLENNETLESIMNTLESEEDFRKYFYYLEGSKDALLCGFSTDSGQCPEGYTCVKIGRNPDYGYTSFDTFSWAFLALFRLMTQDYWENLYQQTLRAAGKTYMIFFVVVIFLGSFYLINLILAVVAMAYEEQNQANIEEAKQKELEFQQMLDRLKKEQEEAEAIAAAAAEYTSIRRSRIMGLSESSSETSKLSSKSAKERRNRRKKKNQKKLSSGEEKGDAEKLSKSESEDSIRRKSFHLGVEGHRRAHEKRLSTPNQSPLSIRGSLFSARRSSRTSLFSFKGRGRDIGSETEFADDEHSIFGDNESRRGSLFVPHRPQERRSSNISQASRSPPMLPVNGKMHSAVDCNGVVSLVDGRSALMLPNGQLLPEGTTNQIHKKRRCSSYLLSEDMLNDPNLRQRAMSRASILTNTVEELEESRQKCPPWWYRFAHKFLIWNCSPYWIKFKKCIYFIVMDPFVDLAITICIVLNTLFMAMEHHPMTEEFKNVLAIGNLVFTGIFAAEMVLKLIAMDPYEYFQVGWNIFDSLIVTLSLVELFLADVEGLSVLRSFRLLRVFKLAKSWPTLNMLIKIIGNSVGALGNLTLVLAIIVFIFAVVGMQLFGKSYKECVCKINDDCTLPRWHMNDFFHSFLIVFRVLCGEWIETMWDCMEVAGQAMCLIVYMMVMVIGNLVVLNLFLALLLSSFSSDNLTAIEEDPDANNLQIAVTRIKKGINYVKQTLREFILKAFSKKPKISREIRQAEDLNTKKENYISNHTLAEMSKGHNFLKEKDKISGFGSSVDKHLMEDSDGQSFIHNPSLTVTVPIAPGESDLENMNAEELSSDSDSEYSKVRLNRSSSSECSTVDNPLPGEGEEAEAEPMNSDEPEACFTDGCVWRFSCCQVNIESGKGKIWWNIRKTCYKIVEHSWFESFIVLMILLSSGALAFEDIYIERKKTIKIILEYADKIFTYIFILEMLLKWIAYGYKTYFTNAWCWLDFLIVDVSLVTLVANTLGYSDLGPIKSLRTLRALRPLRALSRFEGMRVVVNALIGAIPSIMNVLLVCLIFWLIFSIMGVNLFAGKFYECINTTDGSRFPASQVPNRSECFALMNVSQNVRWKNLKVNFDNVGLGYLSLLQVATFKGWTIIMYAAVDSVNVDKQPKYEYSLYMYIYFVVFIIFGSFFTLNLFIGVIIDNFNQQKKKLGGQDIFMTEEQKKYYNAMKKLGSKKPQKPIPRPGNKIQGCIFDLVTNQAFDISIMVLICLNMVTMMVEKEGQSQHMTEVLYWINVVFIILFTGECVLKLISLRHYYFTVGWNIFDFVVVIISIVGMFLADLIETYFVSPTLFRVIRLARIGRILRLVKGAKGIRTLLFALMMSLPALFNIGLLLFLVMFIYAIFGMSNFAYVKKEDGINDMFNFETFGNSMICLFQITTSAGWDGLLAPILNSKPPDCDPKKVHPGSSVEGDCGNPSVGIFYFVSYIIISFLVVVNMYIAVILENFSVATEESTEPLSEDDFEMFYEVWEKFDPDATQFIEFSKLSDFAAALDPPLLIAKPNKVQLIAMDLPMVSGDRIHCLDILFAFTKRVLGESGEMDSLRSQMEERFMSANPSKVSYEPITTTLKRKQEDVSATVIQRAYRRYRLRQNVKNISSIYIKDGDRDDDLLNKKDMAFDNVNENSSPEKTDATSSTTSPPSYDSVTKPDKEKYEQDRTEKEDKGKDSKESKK

Turning to `NC(=O)c1cc(N[C@H]2CCNC2=O)nc(-c2ccc(Oc3ccc(C(F)(F)F)cn3)cc2)n1` [compound 99, (S)-6-((2-oxopyrrolidin-3-yl)amino)-2-(4-((5-(trifluoromethyl)pyridin-2-yl)oxy)phenyl)pyrimidine-4-carboxamide], the “SNL-induced mechanical hyperalgesia in rats” value in experiment [1] is listed as “reduced SNL-induced mechanical hyperalgesia”.

Usually IC50 stands for the concentration that inhibits the measured activity by half. As for `C[C@H](Oc1cc(C(N)=O)nc(-c2ccc(Oc3ccc(Cl)cc3F)cc2)n1)C(N)=O` [Cpd No. 93], the IC50 at human Nav1.7 (setting [2]) amounted to 83 nM.

In the case of `C[C@H](Nc1cc(C(N)=O)nc(-c2ccc(Oc3ccc(F)cc3)c(CO)c2)n1)C(N)=O` [compound 97, (S)-6-((1-amino-1-oxopropan-2-yl)amino)-2-(4-(4-fluorophenoxy)-3-(hydroxymethyl)phenyl)pyrimidine-4-carboxamide], the IC50 at human Nav1.7 turned out to be 5720 nM.

Turning to `C[C@H](Nc1cc(C(N)=O)nc(-c2ccc(Oc3cc(C(F)(F)F)ccn3)cc2)n1)C(N)=O` [compound 57], at human Nav1.7 (setting [2]), the IC50 came out at 3250 nM.

Regarding `C[C@H](Nc1cc(C(N)=O)nc(-c2ccc(Oc3ccc(OC(F)(F)F)cc3)cc2)n1)C(N)=O` [compound 84, (S)-6-((1-amino-1-oxopropan-2-yl)amino)-2-(4-(4-(trifluoromethoxy)phenoxy)phenyl)pyrimidine-4-carboxamide], the “SNL-induced mechanical hyperalgesia in rats” value in experiment [1] is given as “reduced SNL-induced mechanical hyperalgesia”.

In the case of `C[C@H](Oc1cc(C(N)=O)nc(-c2ccc(Oc3cc(Cl)ccc3F)cc2)n1)C(N)=O` [Cpd No. 92], the IC50 on human Nav1.7 (setting [2]) stood at 270 nM.

For the origin of these results see patent US9656968B2, “Pyrimidines as sodium channel blockers” (PURDUE PHARMA L.P, priority 2011, dated 2017).
